Results: patent US20150307549A1, “AGENT FOR PREVENTING ARTERIOSCLEROSIS, AGENT FOR SUPPRESSING VASCULAR INTIMAL THICKENING AND AGENT FOR IMPROVING VASCULAR ENDOTHELIAL FUNCTION” (CALPIS Co., LTD, priority 2006, published 2015)

What was measured:
[1] = test system: thoracic aorta ring of Wistar rats; experiment: Endothelium-dependent vasodilator response of thoracic aorta ring of L-NAME-treated rats (Magnus apparatus); format: in vivo, rat; settings: for Degree of vasodilation compared to the group given only L-NAME (in words): given together with L-NAME in drinking water for one week
Procedure: Wistar rats (7 weeks of age, male) as the test animals were acclimatized for one week. A nitric oxide synthesis inhibitor, NG-nitro-L-arginine methyl ester hydrochloride (L-NAME, manufactured by SIGMA-ALDRICH CORP.) was dissolved in drinking water at the concentration of 1 g/L, and similarly, L-NAME and Val-Pro-Pro synthesized above at 1 g/L and 0.3 g/L, respectively, and L-NAME and Ile-Pro-Pro synthesized above at 1 g/L and 0.3 g/L, respectively. The rats were allowed free access to the prepared drinking water for one week. As a control, only the drinking water without L-NAME dissolved therein was given to a non-treatment group.
Then, the rats were subjected to fatal exsanguination under diethyl ether anesthesia. The thoracic aorta was taken out, cut into 2 mm long, and made into an aorta ring. The ring was set in a Magnus apparatus (product name “micro tissue organ bath MTOB-1Z”, manufactured by LABO SUPPORT CO., LTD.) filled with 5 ml of Tyrode's solution (composition: 158.3 mM of NaCl, 4.0 mM of KCl, 2.0 mM of CaCl2, 1.05 mM of MaCl2, 0.42 mM of NaH2PO4, 10.0 mM of NaHCO3, and 5.6 mM of glucose; pH 7.4, 37±0.5° C.), and allowed to equilibrate with the resting tension of 2.0 g. The aorta ring was then allowed to constrict with 1 μM of phenylephrine
The degree of vasodilation by the response was determined as a ratio to the constriction with 1 μM of phenylephrine. In the Table, each value is an average of each group of 8 animals.
In the Table, each value is an average of each group of 9 animals.

arteriosclerosis = settings: administration; Non-patent Publication 5; cited from earlier work
ApoE knockout mice = experiment: Confirmatory test for effect of inhibiting vascular intimal thickening (Elastica-van Gieson stain, intima/media area ratio); format: in vivo, mouse; settings: 31 weeks; for Inhibition of vascular intimal thickening (in words): Example 2-2, Feeds 1 to 6 versus control; for Degree of Intimal Thickening: intima/media area ratio
Procedure: ApoE knockout mice (6 weeks of age, male, 8 animals for each group) were allowed free access to Feeds 1 to 7 as shown in Table 6 for 31 weeks. Then the thoracic aorta of the mice was taken out, fixed in 10% neutral buffered formalin, and subjected to the Elastica-van Gieson stain. Micrographs of the tissue specimens were scanned into the computer, and the degree of vascular intimal thickening (intima/media area ratio (%)) was calculated using an image processing software (Image J). The values of the degree of thickening shown in the table are the averages of each group.
The confirmatory test for the effect of inhibiting vascular intimal thickening was conducted on each of the solid feeds thus produced in the same way as in Example 2-2, and the degree of intimal thickening (intimal/media area ratio (%)) was calculated. The values of the degree of intimal thickening in the table are the averages of each group.

Compound: COC(=O)[C@@H](N)CCCN=C(N)N[N+](=O)[O-].Cl [L-NAME, NG-nitro-L-arginine methyl ester hydrochloride, reference compound]
- Degree of vasodilation ([1]; 10 μM acetylcholine, ratio to constriction with 1 μM phenylephrine, drinking water one week: L-NAME 1 g/L, peptide 0.3 g/L, enalapril 0.5 mg/L): 26.1%

Compound: CCOC(=O)[C@H](CCc1ccccc1)N[C@@H](C)C(=O)N1CCC[C@H]1C(=O)O [enalapril, reference compound]
- Arteriosclerosis inhibitory effect (arteriosclerosis): does not result in an arteriosclerosis inhibitory effect
- Degree of vasodilation compared to the group given only L-NAME (in words) [1]: no significant difference

Compound: Ile-Pro-Pro
- Degree of vasodilation compared to the group given only L-NAME (in words) [1]: significantly higher
- Inhibition of vascular intimal thickening (in words) (ApoE knockout mice): inhibited vascular intimal thickening concentration-dependently
- Degree of Intimal Thickening (ApoE knockout mice; Feed 3: 0.0017 wt % in feed (Ile-Pro-Pro 17.1 mg/kg feed)): 25.3%
- Degree of Intimal Thickening (ApoE knockout mice; Feed 4: 0.0170 wt % in feed (Ile-Pro-Pro 171.0 mg/kg feed)): 20.5%

Compound: Val-Pro-Pro
- Degree of vasodilation compared to the group given only L-NAME (in words) [1]: significantly higher
- Inhibition of vascular intimal thickening (in words) (ApoE knockout mice): inhibited vascular intimal thickening concentration-dependently
- Degree of Intimal Thickening (ApoE knockout mice; Feed 1: 0.0034 wt % in feed (Val-Pro-Pro 34.1 mg/kg feed)): 21.8%
- Degree of Intimal Thickening (ApoE knockout mice; Feed 2: 0.0340 wt % in feed (Val-Pro-Pro 341.0 mg/kg feed)): 18.7%
